Measurements published in the supplement of paper PMC11208160.

Assay: recombinant UMI read abundance after kanamycin selection (control-corrected) (log10(CPM+1)); higher = more efficient recombination; extreme values may be limits of the assay; sequences stand for … in AGTGCAGAGAAAATCGGCCAGTTTTCTCTGCCTGCAGTCCGCATGCCGTGGGACCCCTTGGGTTCTAACCTGTTGCCTAGATTTATGCAGCGGACTGCCTTTCTCCCAAAGTGATAAACCGG…AGGTTGGTTTCACT; site = the 11-nt donor
In short: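 Values, expressed as log10(CPM+1), derive from recombinant UMI counts converted to CPM, averaged across replicates and scaled by control-derived factors. Plating was with IPTG (0.07 mM) plus kanamycin or unselected, two replicates each. The screen pooled donor and donor-binding-loop pairs for the IS621 bridge recombinase in Escherichia coli.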
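Also: IS621 bridge recombinase in Escherichia coli cells against a fixed T5 target plasmid.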

Going from “GTGGAGGCATGGACCGGTTTTCCCGGTAATCCGTATTTGTG (site CTGGAGGCTCA)” to “GTGGAGGCATGGACCGGTTTTCCCGGTAATCCGTATTTGTG (site GAGGAGGCTCA)”, the “recombinant UMI read abundance (log10)” value falls from 0.921 to 0.602.

First: GTGGAGGCATGGACCGGTTTTCCCGGTAATCCGTATTTGTG (site GCGGAGGCTCA)
Second: GTGGAGGCATGGACCGGTTTTCCCGGTAATCCGTATTTGTG (site GGGGAGGCTCA)
The “recombinant UMI read abundance (log10)” value of the first is higher: 0.6 for the first, 0 for the second.

Going from “GTGGAGGCATGGACCGGTTTTCCCGGTAATCCGTATTTGTG (site GTAGAGGCTCA)” to “GTGGAGGCATGGACCGGTTTTCCCGGTAATCCGTATTTGTG (site GTCGAGGCTCA)”, the “recombinant UMI read abundance (log10)” value falls from 1.94 to 0.00904.

Going from “GTGGAGGCATGGACCGGTTTTCCCGGTAATCCGTATTTGTG (site GTGAAGGCTCA)” to “GTGGAGGCATGGACCGGTTTTCCCGGTAATCCGTATTTGTG (site GTGCAGGCTCA)”, the “recombinant UMI read abundance (log10)” value falls from 1.1 to 0.25.

Compared with “GTGGAGGCATGGACCGGTTTTCCCGGTAATCCGTATTTGTG (site GTGGAAGCTCA)”, “GTGGAGGCATGGACCGGTTTTCCCGGTAATCCGTATTTGTG (site GTGGACGCTCA)” is lower in “recombinant UMI read abundance (log10)” value: 2.56 for the first, 1.02 for the second.

Compared with “GTGGAGGCATGGACCGGTTTTCCCGGTAATCCGTATTTGTG (site GTGGAGACTCA)”, “GTGGAGGCATGGACCGGTTTTCCCGGTAATCCGTATTTGTG (site GTGGAGCCTCA)” is lower in “recombinant UMI read abundance (log10)” value: 0.959 for the first, 0.0109 for the second.

Going from “GTGGAGGCATGGACCGGTTTTCCCGGTAATCCGTATTTGTG (site GTGGAGGCTAA)” to “GTGGAGGCATGGACCGGTTTTCCCGGTAATCCGTATTTGTG (site GTGGAGGCTCA)”, the “recombinant UMI read abundance (log10)” value rises from 0.431 to 1.41.

Compared with “GTGGAGGCATGGACCGGTTTTCCCGGTAATCCGTATTTGTG (site GTGGAGGCTCC)”, “GTGGAGGCATGGACCGGTTTTCCCGGTAATCCGTATTTGTG (site GTGGAGGCTCG)” is higher in “recombinant UMI read abundance (log10)” value: 0.284 for the first, 1.53 for the second.

First: GTGGAGGCATGGACCGGTTTTCCCGGTAATCCGTATTTGTG (site GTGGAGGCTCT)
Second: GTGGAGGCATGGACCGGTTTTCCCGGTAATCCGTATTTGTG (site GTGGAGGCTGA)
The “recombinant UMI read abundance (log10)” value of the first is higher: 1.15 for the first, 0.461 for the second.

First: GTGGAGGCATGGACCGGTTTTCCCGGTAATCCGTATTTGTG (site GTGGAGGCTTA)
Second: GTGGAGGCATGGACCGGTTTTCCCGGTAATCCGTATTTGTG (site GTGGAGTCTCA)
The “recombinant UMI read abundance (log10)” value of the first is lower: 1.42 for the first, 1.82 for the second.

First: GTGGAGGCATGGACCGGTTTTCCCGGTAATCCGTATTTGTG (site GTGGATGCTCA)
Second: GTGGAGGCATGGACCGGTTTTCCCGGTAATCCGTATTTGTG (site GTGGCGGCTCA)
The “recombinant UMI read abundance (log10)” value of the first is higher: 1.27 for the first, 0.00613 for the second.

Compared with “GTGGAGGCATGGACCGGTTTTCCCGGTAATCCGTATTTGTG (site GTGGGGGCTCA)”, “GTGGAGGCATGGACCGGTTTTCCCGGTAATCCGTATTTGTG (site GTGGTGGCTCA)” is lower in “recombinant UMI read abundance (log10)” value: 0.918 for the first, 0 for the second.

First: GTGGAGGCATGGACCGGTTTTCCCGGTAATCCGTATTTGTG (site GTGTAGGCTCA)
Second: GTGGAGGCATGGACCGGTTTTCCCGGTAATCCGTATTTGTG (site GTTGAGGCTCA)
The “recombinant UMI read abundance (log10)” value of the first is higher: 1.06 for the first, 0.792 for the second.

Compared with “GTGGAGGCATGGACCGGTTTTCCCGGTAATCCGTATTTGTG (site TTGGAGGCTCA)”, “GTGGATGCATGGACCGGTTTTCCCGGTAATCCGTATTTGTG (site GTGGAAGCTCA)” is higher in “recombinant UMI read abundance (log10)” value: 0.821 for the first, 1.82 for the second.

“GTGGATGCATGGACCGGTTTTCCCGGTAATCCGTATTTGTG (site GTGGACGCTCA)” and “GTGGATGCATGGACCGGTTTTCCCGGTAATCCGTATTTGTG (site GTGGAGGCTCA)” are within 0.2 log units of each other in “recombinant UMI read abundance (log10)” value: 0.837 for the first, 0.696 for the second.

Compared with “GTGGATGCATGGACCGGTTTTCCCGGTAATCCGTATTTGTG (site GTGGATGCTCA)”, “GTGGCACCATGGACCGGTTTTCCCGGTAATCCGTATTTGAG (site GTGGCACCTCT)” is lower in “recombinant UMI read abundance (log10)” value: 1.67 for the first, 0.0198 for the second.

“GTGGCACCATGGACCGGTTTTCCCGGTAATCCGTATTTGCA (site GAGGCACCTTG)” and “GTGGCACCATGGACCGGTTTTCCCGGTAATCCGTATTTGCA (site GCGGCACCTTG)” are the same in “recombinant UMI read abundance (log10)” value: 0 for the first, 0 for the second.

“GTGGCACCATGGACCGGTTTTCCCGGTAATCCGTATTTGCA (site GGGGCACCTTG)” and “GTGGCACCATGGACCGGTTTTCCCGGTAATCCGTATTTGCA (site GTGGCACCTTG)” are the same in “recombinant UMI read abundance (log10)” value: 0 for the first, 0 for the second.

Going from “GTGGCGGCATGGACCGGTTTTCCCGGTAATCCGTATTTGTG (site GTGGAGGCTCA)” to “GTGGCGGCATGGACCGGTTTTCCCGGTAATCCGTATTTGTG (site GTGGCGGCTCA)”, the “recombinant UMI read abundance (log10)” value rises from 0.154 to 0.696.

“GTGGCGGCATGGACCGGTTTTCCCGGTAATCCGTATTTGTG (site GTGGGGGCTCA)” and “GTGGCGGCATGGACCGGTTTTCCCGGTAATCCGTATTTGTG (site GTGGTGGCTCA)” are within 0.2 log units of each other in “recombinant UMI read abundance (log10)” value: 0.0119 for the first, 0.00615 for the second.

First: GTGGCTGCATGGACCGGTTTTCCCGGTAATCCGTATTTGAT (site GTGGCTGCTAT)
Second: GTGTAGGCATGGACCGGTTTTCCCGGTAATCCGTATTTGGC (site ATGTAGGCTGC)
The “recombinant UMI read abundance (log10)” value of the first is higher: 2.18 for the first, 1.98 for the second.

First: GTGTAGGCATGGACCGGTTTTCCCGGTAATCCGTATTTGGC (site CTGTAGGCTGC)
Second: GTGTAGGCATGGACCGGTTTTCCCGGTAATCCGTATTTGGC (site GTGTAGGCTGC)
The “recombinant UMI read abundance (log10)” value of the first is lower: 1.99 for the first, 2.67 for the second.

First: GTGTAGGCATGGACCGGTTTTCCCGGTAATCCGTATTTGGC (site TTGTAGGCTGC)
Second: GTGTAGGCATGGACCGGTTTTCCCGGTAATCCGTATTTGTG (site GTGAAGGCTCA)
The “recombinant UMI read abundance (log10)” value of the first is higher: 2.28 for the first, 0.891 for the second.

Compared with “GTGTAGGCATGGACCGGTTTTCCCGGTAATCCGTATTTGTG (site GTGCAGGCTCA)”, “GTGTAGGCATGGACCGGTTTTCCCGGTAATCCGTATTTGTG (site GTGGAGGCTCA)” is lower in “recombinant UMI read abundance (log10)” value: 1.36 for the first, 0.00345 for the second.

Compared with “GTGTAGGCATGGACCGGTTTTCCCGGTAATCCGTATTTGTG (site GTGTAGGCTCA)”, “GTGTTTCCATGGACCGGTTTTCCCGGTAATCCGTATTTGTG (site GTGTTTCCTCA)” is lower in “recombinant UMI read abundance (log10)” value: 1.75 for the first, 0.368 for the second.

First: GTTAGAGCATGGACCGGTTTTCCCGGTAATCCGTATTTGCA (site GTTAGAGCTTG)
Second: GTTAGAGCATGGACCGGTTTTCCCGGTAATCCGTATTTGCA (site GTTCGAGCTTG)
The “recombinant UMI read abundance (log10)” value of the first is higher: 3.02 for the first, 1.01 for the second.

Going from “GTTAGAGCATGGACCGGTTTTCCCGGTAATCCGTATTTGCA (site GTTGGAGCTTG)” to “GTTAGAGCATGGACCGGTTTTCCCGGTAATCCGTATTTGCA (site GTTTGAGCTTG)”, the “recombinant UMI read abundance (log10)” value falls from 1.6 to 1.08.

“GTTAGAGCATGGACCGGTTTTCCCGGTAATCCGTATTTGGG (site GTTAGAGCTCC)” and “GTTAGCACATGGACCGGTTTTCCCGGTAATCCGTATTTGGC (site GTTAGAACTGC)” are within 0.2 log units of each other in “recombinant UMI read abundance (log10)” value: 0.089 for the first, 0 for the second.

Compared with “GTTAGCACATGGACCGGTTTTCCCGGTAATCCGTATTTGGC (site GTTAGCACTGC)”, “GTTAGCACATGGACCGGTTTTCCCGGTAATCCGTATTTGGC (site GTTAGGACTGC)” is lower in “recombinant UMI read abundance (log10)” value: 2.11 for the first, 0.0382 for the second.

“GTTAGCACATGGACCGGTTTTCCCGGTAATCCGTATTTGGC (site GTTAGTACTGC)” and “GTTAGTCCATGGACCGGTTTTCCCGGTAATCCGTATTTGAA (site GTTAGTCCTTT)” are within 0.2 log units of each other in “recombinant UMI read abundance (log10)” value: 0 for the first, 0.171 for the second.

Compared with “GTTCAAGCATGGACCGGTTTTCCCGGTAATCCGTATTTGTC (site GTTCAAGCTGA)”, “GTTCATGCATGGACCGGTTTTCCCGGTAATCCGTATTTGGT (site GTACATGCTAC)” is lower in “recombinant UMI read abundance (log10)” value: 1.84 for the first, 0.216 for the second.

Compared with “GTTCATGCATGGACCGGTTTTCCCGGTAATCCGTATTTGGT (site GTCCATGCTAC)”, “GTTCATGCATGGACCGGTTTTCCCGGTAATCCGTATTTGGT (site GTGCATGCTAC)” is higher in “recombinant UMI read abundance (log10)” value: 0.258 for the first, 0.477 for the second.

Going from “GTTCATGCATGGACCGGTTTTCCCGGTAATCCGTATTTGGT (site GTTCATGCTAC)” to “GTTCCCTCATGGACCGGTTTTCCCGGTAATCCGTATTTGTA (site GTTCCCTCTTA)”, the “recombinant UMI read abundance (log10)” value rises from 0.717 to 2.5.

Going from “GTTCCGACATGGACCGGTTTTCCCGGTAATCCGTATTTGTG (site GTTCCGACTCA)” to “GTTCCTTCATGGACCGGTTTTCCCGGTAATCCGTATTTGAC (site GTTCCTTCTGT)”, the “recombinant UMI read abundance (log10)” value rises from 0.0473 to 0.671.
